The text below walks through data of paper PMC6035881 (Antiviral Research, 2018).

One may read the EC50 as the concentration at which the effect is half-maximal. In general, EC90 refers to the concentration needed for an effect of 90%.

Series [1] deals with RVFV (strain ZH501). The arrangement: species or system Syrian golden hamsters. The conditions noted are these: hamster, in vivo.
Series [2] relates to RVFV (strain ZH501). The arrangement: species or system Syrian golden hamsters. To be noted: hamster, in vivo. The source holds these as a separate data set.
Series [3] relates to RVFV. The conditions noted are these: hamster, in vivo; cited from earlier work.
The subject of series [4] is RVFV (strain ZH501). The arrangement: species or system Syrian golden hamsters. The conditions noted are these: hamster, in vivo, ip.
The test system of series [5] is RVFV (MP-12 strain).
The subject of series [6] is RVFV (MP-12 strain). The source holds these as a separate data set.
The test system of series [7] is RVFV. The conditions noted are these: cited from earlier work.
The test system of series [8] is more than 20 different viruses across eight different virus families. The conditions noted are these: read-out: in vitro antiviral potency EC50; cited from earlier work.
In series [9] the test system is RVFV. To be noted: in vivo; cited from earlier work.
A short description of a further series: in vitro. The conditions noted are these: African green monkey.
For series [10] the following is noted: hamster, in vivo, ip; cited from earlier work.
In series [11] the test system is RVFV (MP-12 strain). Briefly: microbe, parasite or virus in culture. The conditions noted are these: Rift Valley fever virus, Vero 76, 120 h, read-out: EC50 (CPE reduction assay).
Series [12] deals with RVFV (MP-12 strain). Briefly: microbe, parasite or virus in culture. To be noted: Rift Valley fever virus, Vero 76, read-out: EC90 (VYR).

Values joined by “and” are separate entries in the source; they are usually repeats but may differ in a detail not shown here. Equal entries are not always repeated.

As to `NC(=O)c1ncn([C@@H]2O[C@H](CO)[C@@H](O)[C@H]2O)n1` [Ribavirin, reference compound], the “virus in day 2 serum and tissue samples” value in the series on RVFV (strain ZH501) [1] is “devoid of virus”. Further, in the series on RVFV (strain ZH501) [2], the survival was 30%.

On to `NC(=O)c1nc(F)c[nH]c1=O` [favipiravir], for which the “hamsters protected from lethal RVFV challenge” value with RVFV [3] is 70–80%.

Turning to `Nc1ncnc2c([C@@H]3N[C@H](CO)[C@@H](O)[C@H]3O)c[nH]c12` [Galidesivir], the “RVFV in serum, spleen or brain on day 2 p.i.” value in the series with RVFV (strain ZH501) [1] was “undetectable”. Also, the “animals with detectable viral load in the liver on day 2 p.i.” value in the series on RVFV (strain ZH501) [1] is “only a single animal”. In addition, in the series on RVFV (strain ZH501) [2], the “animals surviving the lethal RVFV challenge” value was 70%. Besides, the protection from mortality entry with RVFV (strain ZH501) [2] is reported as “up to 70%”. The “levels of virus across all tissues and serum, day 2 p.i.” value with RVFV (strain ZH501) [4] is “undetectable”. In addition, the “SI (CC50/EC50)” value in the series with RVFV (MP-12 strain) [5] is reported as 5.2. Further, the “SI (CC50/EC90)” value in the series with RVFV (MP-12 strain) [6] was 7.6. Further, the EC50 is 41.6 µM with RVFV [7]; under 50 µM in series [8]; 54 µg/mL and 20.4 µM with RVFV (MP-12 strain) [11]. Besides, the EC90 in the series with RVFV [7] was 98 µM; in the series on RVFV (MP-12 strain) [12] it was 37 µg/mL and 13.9 µM. Also, in the series with RVFV [9], the “protection in mouse model of RVFV infection” value is on record as “partial protection”. In addition, the CC50 in “in vitro” was 280 µg/mL and 106 µM. In series [10], the maximum tolerated dose was 200 mg/kg/day.
